Measured values as given in patent US9757350B2, “Small molecule inhibitors of replication protein A that also act synergistically with cisplatin” (Indiana University Research and Technology Corp., priority 2010, dated 2017).

Experiments:
A2780 cells = assay: CCK-8 cell viability assay, A2780; type: cell-based; settings: 24 hours of treatment
Protocol: (§1) Referring now to FIG. 13A. Cell Viability and Apoptosis of Ovarian and p53 null Lung Cancer Cell Lines. A) Ovarian cancer cell line A2780 and the p53 null lung cancer cell line, H1299, were treated with log dosing of MCI13E and viability analyzed via CCK-8 metabolic assay as described in Methods. Data is presented as cell survival which was determined as a percent of the untreated control cells and represents the average and standard deviation of triplicate experiments Referring now to FIG. 13B.
Ovarian cancer cell line, A2780, cells are difficult to use for crystal violet analysis due to their enhanced sensitivity to treatment. Therefore, the cell counting kit-8 (CCK) was used to determine the viability of A2780 cells in addition to the p53 null lung cancer cell line H1299, following a 24 hour treatment with log dosing of SMI. Cells were plated (1×10^5) in 24-well dishes and treated with inhibitor after 24 hours. After treatment media was aspirated and 1 ml of DMEM was added in addition to 100 μL of CCK-8 solution. Absorbance at 450 nm was measured over 4 hours in a SpectraMax M5 plate reader and values are presented as the percent untreated control at the two hour time point for three separate plate replicates each containing three assays per plate.

H460 cells = assay: Cell cycle analysis by PI staining, H460; type: cell-based; settings: H460, increasing doses
Protocol: Referring now to FIG. 12A and FIG. 12B. Cell Cycle Analysis of Lung Cancer Cell Lines Following Treatment with MCI13E. A549. Referring now to FIG. 12C, and FIG. 12D. H460 were treated as indicated and analyzed for the cell cycle distribution using PI staining and flow cytometry. Quantification of data following 6 hours and 12 hour treatment with 10 and 20 μM MCI13E was performed for both A549 (FIG. 12E) and H460 (FIG. 12F) Data presented represent the averages of three replicate experiments.
(§2) Cell cycle analysis was also performed on the three lung cancer cell lines using PI staining to identify the potential arrest resulting from treatment with SMIs. Briefly, cells were plated in 6-well dishes (2×10^5 cells total) and treated for 6 or 12 hours with increasing concentration of inhibitor. Adherent and non-adherent cells were collected, washed twice with PBS containing 2% bovine serum albumin (BSA), resuspended in 70% cold EtOH and incubated overnight at −20° C. Cells were again collected and stained with PI (1 μg/mL) and RNaseA (25 μg/mL) for 30 min. at 37° C. followed by 1.5 hours at 4° C. in the dark. Flow cytometry was performed as above and data were analyzed on a histogram with events plotted against the FL2-A parameter. Cell cycle distribution was analyzed using the ModFit software and data presented represents three independent trials.

[1] = target: T1, full-length heterotrimeric RPA (Homo sapiens, UniProt P27694); assay: Reversibility of full-length RPA inhibition: dialysis, then EMSA; type: binding; settings: overnight dialysis, then EMSA with 34-base DNA
T1 construct: Human full-length, un-tagged heterotrimeric RPA (RPA) was purified as previously describe; made in house
Protocol: Considering the differential inhibition observed between the anhydride and halo esters with respect to specificity, experiments were carried out to determine if the isoborneol halo-esters inhibited full-length RPA in an irreversible fashion. Full-length RPA was mixed with MCI13E or vehicle control and the reaction mixtures were then dialyzed overnight. Referring now to FIG. 5. Gel showing irreversible inactivation of full-length heterotrimeric RPA by MCI13E. Incubation of RPA with MCI13E, dialysis and recovery was performed as described for FIG. 3. DNA binding activity of the resulting protein was assessed by EMSA using a 5′-[^32P]-ss 34-base DNA as described in “Methods”. Lanes 1-4 pre-dialysis, lanes 5 and 6 post dialysis. […] In fact, the degree of inhibition was similar to that observed for the MCI13E treated RPA before dialysis (FIG. 5 lanes 3 and 4). […] This activity is consistent with MCI13E and F and their reaction with RPA serving as a pharmacodynamic marker of RPA inhibition or as a biomarker for RPA expression and activity.
In order to assess the reversibility of select SMIs, the indicated SMI was pre-incubated with RPA or the DBD-A/B construct for 30 minutes at room temperature. […] The resulting protein was recovered and concentration determined by Bradford analysis. […]

[2] = test system: NSCLC cell lines A549 and H460; assay: Apoptosis by Annexin V/PI staining, NSCLC cell lines; type: cell-based; settings: 48 hours
Protocol: Referring now to FIG. 11A. Gel showing effect of MCI13E on DNA-RPA binding. […] Cytotoxicity was analyzed via crystal violet analysis as described in “methods” 48 hours following MCI13E treatment. Data represent the average and standard deviation of four replicate experiments with each replicate containing triplicate determinations and the circles represent data from H460 cells and squares A549 cells. Referring now to FIG. 11C. Graph of MCI13E induced death via apoptosis in NSCLC cell lines. Cell were treated with the indicated concentrations of MCI13E for 48 hours and analyzed for the induction of apoptosis via Annexin V/PI staining Referring now to FIG. 11D. Graph of cell survival as a function of [MCI1EC]. Percent survival was calculated for each cell line using untreated cells as a control. […]
Flow Cytometry—After determining the SMI cytotoxicity, H460, A549 and H1299 lung cancer cell lines were analyzed for apoptosis using the Annexin V-FITC/Propidium Iodide (PI) Vybrant® Apoptosis Assay kit (Invitrogen, Gaithersburg, Md.). […] Following treatment, both adherent and non-adherent cells were collected, processed via the manufacturer's protocol (Invitrogen) and analyzed on a FACScan flow cytometer (Becton Dickson, San Jose, Calif.). Data was analyzed using WinDMI software (The Scripps Research Institute, Can Diego, Calif.) and results are presented as a percentage of control (untreated cells).

H1299 cells [3] = assay: Apoptosis by Annexin V/PI staining, H1299; type: cell-based; settings: H1299, Annexin V and propidium iodine staining
Protocol: as §1
Flow Cytometry—After determining the SMI cytotoxicity, H460, A549 and H1299 lung cancer cell lines were analyzed for apoptosis using the Annexin V-FITC/Propidium Iodide (PI) Vybrant® Apoptosis Assay kit (Invitrogen, Gaithersburg, Md.). Cells were plated in 6-well dishes (2×10^5 cells total), treated for 24 (H1299) or 48 (H460 and A549) hours with increasing concentrations of SMI. Following treatment, both adherent and non-adherent cells were collected, processed via the manufacturer's protocol (Invitrogen) and analyzed on a FACScan flow cytometer (Becton Dickson, San Jose, Calif.). Data was analyzed using WinDMI software (The Scripps Research Institute, Can Diego, Calif.) and results are presented as a percentage of control (untreated cells).

H1299 cells [4] = assay: Cell cycle analysis by PI staining, H1299; type: cell-based; settings: 6, 12 and 24 hours of treatment
Protocol: as §2, with “Briefly, cells were plated in 6-well dishes (2×10^5 cells total) and treated for 6 or 12 hours with increasing concentration of inhibitor.” left out

T1 sequence (P27694 whole entry): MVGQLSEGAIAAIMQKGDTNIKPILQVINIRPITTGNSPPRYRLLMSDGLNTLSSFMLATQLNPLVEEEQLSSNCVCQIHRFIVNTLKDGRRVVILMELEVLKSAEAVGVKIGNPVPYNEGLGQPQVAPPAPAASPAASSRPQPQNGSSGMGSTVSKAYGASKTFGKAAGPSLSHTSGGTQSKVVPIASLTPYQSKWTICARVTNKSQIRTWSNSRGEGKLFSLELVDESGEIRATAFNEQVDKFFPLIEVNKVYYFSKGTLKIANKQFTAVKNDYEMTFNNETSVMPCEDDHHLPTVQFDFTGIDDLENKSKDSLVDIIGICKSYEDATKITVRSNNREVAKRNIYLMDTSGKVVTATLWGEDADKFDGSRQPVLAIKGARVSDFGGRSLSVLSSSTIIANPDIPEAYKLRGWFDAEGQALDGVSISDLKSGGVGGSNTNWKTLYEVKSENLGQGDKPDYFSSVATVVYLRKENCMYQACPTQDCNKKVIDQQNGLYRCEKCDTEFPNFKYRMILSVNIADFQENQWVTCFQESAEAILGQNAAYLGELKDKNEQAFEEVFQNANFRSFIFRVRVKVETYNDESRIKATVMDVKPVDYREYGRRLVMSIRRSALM
T1 sequence (P15927 whole entry partner): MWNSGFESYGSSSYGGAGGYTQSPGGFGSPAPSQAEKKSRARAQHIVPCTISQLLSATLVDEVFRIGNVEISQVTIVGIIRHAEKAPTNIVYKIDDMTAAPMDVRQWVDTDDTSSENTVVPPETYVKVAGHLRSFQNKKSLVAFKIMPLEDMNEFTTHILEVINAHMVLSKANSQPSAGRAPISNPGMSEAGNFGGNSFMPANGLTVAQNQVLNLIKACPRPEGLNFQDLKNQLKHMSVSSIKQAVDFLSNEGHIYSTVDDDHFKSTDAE
T1 sequence (P35244 whole entry partner): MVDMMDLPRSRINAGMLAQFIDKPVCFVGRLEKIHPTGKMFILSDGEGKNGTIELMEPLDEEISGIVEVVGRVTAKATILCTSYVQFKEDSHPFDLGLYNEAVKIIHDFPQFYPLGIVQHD

For `CC1(C)C2CCC1(C)C(OC(=O)CBr)C2` (racemic) [MCI13E, (+/−)-Isobornyl bromoacetate], the IC50 (A2780 cells) was ~1000 nM, the Cell cycle distribution (H460 cells) was “increase in the proportion of cells in S-phase” and the “Reversibility of full-length RPA inhibition” value [1] was “inhibition was not reversed by dialysis”. For the same compound, the “Mode of cell death” value [2] was “induces death via classical apoptosis”, the Induction of apoptosis (H1299 cells [3]) was “indicative of the induction of apoptosis” and the Cell cycle distribution (H1299 cells [4]) was “increased percentage of cells accumulated in S-phase”.
